In the CheMixHub viscosity set:

Test: xn = mol fraction of the nth substance listed

CC(C)CN + COCCO
298.15 K, 101 kPa
Settings	viscosity [mPa·s]
x2 = 0.05	0.614
x2 = 0.1001	0.666
x2 = 0.1511	0.719
x2 = 0.2	0.788
x2 = 0.2513	0.869
x2 = 0.2996	0.95
x2 = 0.3519	1.043
x2 = 0.4002	1.132
x2 = 0.4491	1.221
x2 = 0.4989	1.308
x2 = 0.5501	1.387
x2 = 0.6	1.457
x2 = 0.6521	1.52
x2 = 0.6999	1.567
x2 = 0.7502	1.608
x2 = 0.8	1.632
x2 = 0.8512	1.643
x2 = 0.9	1.641
x2 = 0.9492	1.609

[Cl-].[Cl-].[Cl-].[Cl-].[Sn+4] + COc1ccccc1
viscosity [mPa·s], 101 kPa
Settings	x2 = 0.5074	x2 = 0.6728	x2 = 0.782	x2 = 0.8238	x2 = 0.864	x2 = 0.9558
293.15 K	0.932	0.958	1.01	1.04	1.07	1.1
313.15 K	0.724	0.732	0.746	0.765	0.779	0.811

Cc1cc(C)cc(C)c1 + CS(C)=O
viscosity [mPa·s], 101.3 kPa
Settings	x2 = 0.0996	x2 = 0.1961	x2 = 0.3046	x2 = 0.4024	x2 = 0.5049	x2 = 0.6057	x2 = 0.7047	x2 = 0.8055	x2 = 0.9018
298.15 K	0.699	0.772	0.865	1.018	1.168	1.28	1.367	1.508	1.711
303.15 K	0.654	0.718	0.799	0.901	1.029	1.136	1.241	1.372	1.553
308.15 K	0.616	0.674	0.747	0.831	0.935	1.036	1.135	1.266	1.42

Cc1cc(C)cc(C)c1 + C[N+](=O)[O-]
293.15 K, 101.33 kPa
Settings	viscosity [mPa·s]
x2 = 0.1192	0.686
x2 = 0.2065	0.683
x2 = 0.3019	0.679
x2 = 0.3858	0.679
x2 = 0.4761	0.674
x2 = 0.6061	0.671
x2 = 0.7112	0.666
x2 = 0.7985	0.657
x2 = 0.8912	0.648

OCCCCO + C[N+](C)(C)CCO.[Cl-]
viscosity [mPa·s]
Settings	293.15 K	298.15 K	298.2 K	303.15 K	308.15 K	308.2 K	313.15 K	318.15 K	318.2 K	323.15 K
101 kPa, x2 = 0.2	–	70.2	–	–	–	–	–	32.3	–	–
101.3 kPa, x1 = 0.7519	112.9	87.4	–	70.16	59.73	–	47.89	39.53	–	33.04
101.3 kPa, x1 = 0.8	99.69	78.77	–	62.96	51.08	–	41.67	34.51	–	28.9
101.3 kPa, x1 = 0.8334	93.6	74.9	–	59.28	48	–	39.41	32.5	–	27.36
101.3 kPa, x1 = 0.8575	91.44	72.28	–	57.86	46.72	–	38.31	31.67	–	26.47
101.3 kPa, x2 = 0.1672	–	–	75.5	–	–	58.2	–	–	42.8	–
101.3 kPa, x2 = 0.2	–	–	–	54.75	44.49	–	36.66	30.4	–	25.74
101.3 kPa, x2 = 0.25	–	–	–	60.64	49.3	–	40.55	33.94	–	28.53

O=S=O + Cc1cc(C)cc(C)c1
298.15 K, 101 kPa
Settings	viscosity [mPa·s]
x1 = 0.137	0.6381
x1 = 0.223	0.6062
x1 = 0.255	0.5926

Cc1cc(C)cc(C)c1 + Cc1ccccc1
viscosity [mPa·s]
Settings	100 kPa	101.33 kPa
298.15 K, x2 = 0.5	0.5957	0.5957
298.24 K, x2 = 0.8	0.5709	0.5709
303.16 K, x2 = 0.5	–	0.5616
303.18 K, x2 = 0.8	–	0.5394
307.82 K, x2 = 0.8	–	0.5125
308.22 K, x2 = 0.5	–	0.5315
313.14 K, x2 = 0.5	0.505	0.505
313.26 K, x2 = 0.8	0.4837	0.4837
317.67 K, x2 = 0.8	–	0.4619
318.09 K, x2 = 0.5	–	0.4792
322.66 K, x2 = 0.8	–	0.4389
322.74 K, x2 = 0.5	–	0.4583

O=S=O + Cc1ccccc1
298.15 K, 101 kPa
Settings	viscosity [mPa·s]
x1 = 0.0185	0.5449
x1 = 0.0455	0.5339
x1 = 0.104	0.5121
x1 = 0.1897	0.4881

Cc1cc(C)cc(C)c1 + ClC(Cl)(Cl)Cl
298.15 K, 101 kPa
Settings	viscosity [mPa·s]
x1 = 0.1	0.8579
x1 = 0.2	0.8194
x1 = 0.3	0.7889
x1 = 0.4	0.7637
x1 = 0.5	0.7421
x1 = 0.6	0.7226
x1 = 0.7	0.7044
x1 = 0.8	0.6875
x1 = 0.9	0.672

O=S=O + ClC(Cl)(Cl)Cl
298.15 K, 101 kPa
Settings	viscosity [mPa·s]
x1 = 0.00784	0.8572
x1 = 0.0163	0.841
x1 = 0.0185	0.8352
x1 = 0.0267	0.82

O=S=O + ClC(Cl)Cl
298.15 K, 101 kPa
Settings	viscosity [mPa·s]
x1 = 0.0035	0.5141
x1 = 0.004762	0.5053
x1 = 0.00539	0.5022

OCCCCO + NC=O
Settings	viscosity [mPa·s]
318.15 K, 101 kPa, x2 = 0.1052	18.95

CCC[NH3+].O=[N+]([O-])[O-] + O
298 K, 101 kPa
Settings	viscosity [mPa·s]
x2 = 0.1	50.56
x2 = 0.198	34.71
x2 = 0.294	24.59
x2 = 0.397	16.65
x2 = 0.494	11.43
x2 = 0.596	7.63
x2 = 0.696	5.02
x2 = 0.797	3.19
x2 = 0.9	1.86
x2 = 0.95	1.35
